Assay results: PubChem BioAssay AID2060897 (Molecular Pharmacology Branch, DTP, NCI, 2025)
Blank lines part the entries; values can stand above or below the molecule they belong to.

Tested on: 966289-007-R4-J1-PDC complex spheroid viability
Assay: Anticancer human tumor 966289-007-R4-J1-PDC patient-derived pancreatic adenocarcinoma cell line growth inhibition [RAS]
Conditions: for IC50: curve of first compound; for viability, T/C: stronger effect = lower value
In short: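 Tumour cells grown as complex spheroids with HUVEC endothelial cells and mesenchymal stem cells, treated with RAS pathway inhibitor combinations. Each agent spans half-log steps from near clinical Cmax, or 10 microM where Cmax is unknown.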

[1] = second compound 0.0316 µM, first compound 0.00316 µM
[2] = second compound 0.0316 µM, first compound 0.01 µM
[3] = second compound 0.0316 µM, first compound 0.0316 µM
[4] = second compound 0.0316 µM, first compound 0.1 µM
[5] = second compound 0.0316 µM, first compound 0.316 µM
[6] = second compound 0.0316 µM, first compound 1 µM
[7] = second compound 0.1 µM, first compound 0.00316 µM
[8] = second compound 0.1 µM, first compound 0.01 µM
[9] = second compound 0.1 µM, first compound 0.0316 µM
[10] = second compound 0.1 µM, first compound 0.1 µM
[11] = second compound 0.1 µM, first compound 0.316 µM
[12] = second compound 0.1 µM, first compound 1 µM
[13] = second compound 0.316 µM, first compound 0.00316 µM
[14] = second compound 0.316 µM, first compound 0.01 µM
[15] = second compound 0.316 µM, first compound 0.0316 µM
[16] = second compound 0.316 µM, first compound 0.1 µM
[17] = second compound 0.316 µM, first compound 0.316 µM
[18] = second compound 0.316 µM, first compound 1 µM
[19] = second compound 1 µM, first compound 0.00316 µM
[20] = second compound 1 µM, first compound 0.01 µM
[21] = second compound 1 µM, first compound 0.0316 µM
[22] = second compound 1 µM, first compound 0.1 µM
[23] = second compound 1 µM, first compound 0.316 µM
[24] = second compound 1 µM, first compound 1 µM
[25] = second compound 3.16 µM, first compound 0.00316 µM
[26] = second compound 3.16 µM, first compound 0.01 µM
[27] = second compound 3.16 µM, first compound 0.0316 µM
[28] = second compound 3.16 µM, first compound 0.1 µM
[29] = second compound 3.16 µM, first compound 0.316 µM
[30] = second compound 3.16 µM, first compound 1 µM
[31] = second compound 10 µM, first compound 0.00316 µM
[32] = second compound 10 µM, first compound 0.01 µM
[33] = second compound 10 µM, first compound 0.0316 µM
[34] = second compound 10 µM, first compound 0.1 µM
[35] = second compound 10 µM, first compound 0.316 µM
[36] = second compound 10 µM, first compound 1 µM
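Further: spheroids exposed to agents for one week before readout.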
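Wherever viability, T/C is given: percent viability relative to DMSO vehicle control wells as 100%.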

- IC50 (second compound 0.000949 µM): 7.01 nM
- IC50 (second compound 0.003 µM): 5.6 nM
- IC50 (second compound 0.00949 µM): 4.48 nM
- IC50 (second compound 0.03 µM): 4.23 nM
- IC50 (second compound 0.0949 µM): 4.66 nM
- IC50 (second compound 0.3 µM): 5.27 nM
Compound: Nc1ccn(C2OC(CO)C(O)C2(F)F)c(=O)n1 (stereo unspecified) + CCn1c(-c2cccnc2C(C)OC)c2c3cc(ccc31)N1CCOC(CC(NC(=O)C(C(C)C)N(C)C(=O)C3(F)CCN(C(=O)C#CC(C)(C)N(C)C)CC3)C(=O)N3CCCC(N3)C(=O)OCC(C)(C)C2)C1
- viability, T/C (second compound 0.000949 µM, first compound 0.00316 µM): 119%
- viability, T/C (second compound 0.000949 µM, first compound 0.01 µM): 18.9%
- viability, T/C (second compound 0.000949 µM, first compound 0.0316 µM): 1.45%
- viability, T/C (second compound 0.000949 µM, first compound 0.1 µM): 0.78%
- viability, T/C (second compound 0.000949 µM, first compound 0.316 µM): 0.73%
- viability, T/C (second compound 0.000949 µM, first compound 1 µM): 0.9%
- viability, T/C (second compound 0.003 µM, first compound 0.00316 µM): 87.3%
- viability, T/C (second compound 0.003 µM, first compound 0.01 µM): 12.3%
- viability, T/C (second compound 0.003 µM, first compound 0.0316 µM): 1.03%
- viability, T/C (second compound 0.003 µM, first compound 0.1 µM): 0.84%
- viability, T/C (second compound 0.003 µM, first compound 0.316 µM): 1.07%
- viability, T/C (second compound 0.003 µM, first compound 1 µM): 1.18%
- viability, T/C (second compound 0.00949 µM, first compound 0.00316 µM): 67.6%
- viability, T/C (second compound 0.00949 µM, first compound 0.01 µM): 9.69%
- viability, T/C (second compound 0.00949 µM, first compound 0.0316 µM): 0.94%
- viability, T/C (second compound 0.00949 µM, first compound 0.1 µM): 0.85%
- viability, T/C (second compound 0.00949 µM, first compound 0.316 µM): 0.87%
- viability, T/C (second compound 0.00949 µM, first compound 1 µM): 1.1%
- viability, T/C (second compound 0.03 µM, first compound 0.00316 µM): 64%
- viability, T/C (second compound 0.03 µM, first compound 0.01 µM): 8.78%
- viability, T/C (second compound 0.03 µM, first compound 0.0316 µM): 0.83%
- viability, T/C (second compound 0.03 µM, first compound 0.1 µM): 1.03%
- viability, T/C (second compound 0.03 µM, first compound 0.316 µM): 1.23%
- viability, T/C (second compound 0.03 µM, first compound 1 µM): 0.98%
- viability, T/C (second compound 0.0949 µM, first compound 0.00316 µM): 72.2%
- viability, T/C (second compound 0.0949 µM, first compound 0.01 µM): 6.25%
- viability, T/C (second compound 0.0949 µM, first compound 0.0316 µM): 0.85%
- viability, T/C (second compound 0.0949 µM, first compound 0.1 µM): 0.82%
- viability, T/C (second compound 0.0949 µM, first compound 0.316 µM): 1.11%
- viability, T/C (second compound 0.0949 µM, first compound 1 µM): 1.25%
- viability, T/C (second compound 0.3 µM, first compound 0.00316 µM): 86.9%
- viability, T/C (second compound 0.3 µM, first compound 0.01 µM): 3.9%
- viability, T/C (second compound 0.3 µM, first compound 0.0316 µM): 0.92%
- viability, T/C (second compound 0.3 µM, first compound 0.1 µM): 0.98%
- viability, T/C (second compound 0.3 µM, first compound 0.316 µM): 0.91%
- viability, T/C (second compound 0.3 µM, first compound 1 µM): 1.22%

- IC50 (second compound 0.0316 µM): 397 nM
- IC50 (second compound 0.1 µM): 376 nM
- IC50 (second compound 0.316 µM): 395 nM
- IC50 (second compound 1 µM): 409 nM
- IC50 (second compound 3.16 µM): 404 nM
- IC50 (second compound 10 µM): 522 nM
Compound: O=C(c1ccc(F)c(F)c1Nc1ccc(I)cc1F)N1CC(O)([C@@H]2CCCCN2)C1 + C#Cc1c(F)ccc2cc(O)cc(-c3ncc4c(N5CC6CCC(C5)N6)nc(OCC56CCCN5CC(F)C6)nc4c3F)c12
- viability, T/C [1]: 87%
- viability, T/C [2]: 68.4%
- viability, T/C [3]: 78%
- viability, T/C [4]: 66.3%
- viability, T/C [5]: 55.5%
- viability, T/C [6]: 31.8%
- viability, T/C [7]: 96.2%
- viability, T/C [8]: 73.7%
- viability, T/C [9]: 61.7%
- viability, T/C [10]: 66.3%
- viability, T/C [11]: 64.5%
- viability, T/C [12]: 33.3%
- viability, T/C [13]: 76%
- viability, T/C [14]: 70.3%
- viability, T/C [15]: 73%
- viability, T/C [16]: 60.8%
- viability, T/C [17]: 56.4%
- viability, T/C [18]: 33.3%
- viability, T/C [19]: 74.5%
- viability, T/C [20]: 74.4%
- viability, T/C [21]: 65%
- viability, T/C [22]: 65.2%
- viability, T/C [23]: 56.6%
- viability, T/C [24]: 32.8%
- viability, T/C [25]: 78.6%
- viability, T/C [26]: 72.9%
- viability, T/C [27]: 70.7%
- viability, T/C [28]: 64.4%
- viability, T/C [29]: 54.2%
- viability, T/C [30]: 36.3%
- viability, T/C [31]: 77.7%
- viability, T/C [32]: 69.8%
- viability, T/C [33]: 71.2%
- viability, T/C [34]: 66%
- viability, T/C [35]: 59.4%
- viability, T/C [36]: 39.3%

- IC50 (second compound 0.0316 µM): 7.64 nM
- IC50 (second compound 0.1 µM): 11.9 nM
- IC50 (second compound 0.316 µM): 8.38 nM
- IC50 (second compound 1 µM): 8.9 nM
- IC50 (second compound 3.16 µM): 8.38 nM
- IC50 (second compound 10 µM): 7.88 nM
Compound: Nc1ccn(C2OC(CO)C(O)C2(F)F)c(=O)n1 (stereo unspecified) + C#Cc1c(F)ccc2cc(O)cc(-c3ncc4c(N5CC6CCC(C5)N6)nc(OCC56CCCN5CC(F)C6)nc4c3F)c12
- viability, T/C [1]: 108%
- viability, T/C [2]: 32.5%
- viability, T/C [3]: 2.19%
- viability, T/C [4]: 1.41%
- viability, T/C [5]: 1.38%
- viability, T/C [6]: 1.56%
- viability, T/C [7]: 99.4%
- viability, T/C [8]: 58.5%
- viability, T/C [9]: 1.48%
- viability, T/C [10]: 1.34%
- viability, T/C [11]: 1.6%
- viability, T/C [12]: 1.65%
- viability, T/C [13]: 91.6%
- viability, T/C [14]: 42.4%
- viability, T/C [15]: 1.95%
- viability, T/C [16]: 1.65%
- viability, T/C [17]: 1.22%
- viability, T/C [18]: 1.73%
- viability, T/C [19]: 101%
- viability, T/C [20]: 44.2%
- viability, T/C [21]: 2.02%
- viability, T/C [22]: 1.61%
- viability, T/C [23]: 1.68%
- viability, T/C [24]: 1.67%
- viability, T/C [25]: 97.4%
- viability, T/C [26]: 41.4%
- viability, T/C [27]: 2.43%
- viability, T/C [28]: 2.49%
- viability, T/C [29]: 2.42%
- viability, T/C [30]: 2.25%
- viability, T/C [31]: 99.1%
- viability, T/C [32]: 37.1%
- viability, T/C [33]: 1.37%
- viability, T/C [34]: 1.51%
- viability, T/C [35]: 1.83%
- viability, T/C [36]: 1.37%
